Reference: US20140315972A1, “RS)-2-(2-oxo-4-phenylpyrrolidin-1-yl)acetamide compound having modulatory activity with a commensurate effect, pharmaceutical substance (variants) and its application, composition (variants) thereof” (priority 2011, published 2014)
Marks after values point to notes of the source that are not given here.

Assays:
cats = type: in vivo; conditions: anesthetized cats; single i.v.; 100 mg/kg (title)
rats = assay: Scopolamine-induced CRPA amnesia, preventive and therapeutic use, adult male rats; type: in vivo
From the text: These findings are of great importance. In clinic, medications have to be prescribed more often already in the midst of disorders.

mice = assay: Duration of swimming in cold (2° C.) and normal (25° C.) water; type: in vivo; conditions: for Duration of swimming at day 28: 4-week administration 50 mg/kg
Procedure: Stimulatory effect on the duration of swimming in cold (2° C.) and normal (25° C.) water (Table 8.1-8.1.1) of Phenotropil (25 and 50 mg/kg) compared with the control (distilled water) and Benzedrine (2.5 mg/kg) was studied in white outbred male mice (18-26 g) compared to control (distilled water) when intraperitoneally administered, 60 min after the administration and with a course administration for 4 weeks administration on day 28 (Table 8.1.2). […] At normal temperature of water, the effect of Benzedrine was not modified and stayed at 34%.
The advantage of psychomodulator Phenotropil is obvious both with the single dose and the course use, by the effect on physical performance and stability of the body, both in normal and more adverse temperature conditions.

[1] = Body weight in obese rats, 1 month intragastric course; type: in vivo; conditions: for Body weight (%): change vs control (dist. water) = 100
Procedure: Investigation of the effect of Phenotropil on body weight at course intragastric administration for 1 month was performed at doses of 25, 50, 100, 200 and 300 mg/kg/day in white outbred rats of both sexes with obvious signs of obesity (380-430 g) without changes in diet and behavior. Each animal was placed in a standard single cell. The body weight, the amount of water and food consumed per day were recorded.

IL-1 = assay: Cytokine profile in supernatants of peripheral mononuclear cultures (ELISA), asthenoneurotic patients; type: in vivo, human; conditions: for IL-1: asthenoneurotic disorders, humans
Procedure: (§1) The study of immunocompetent activity of Phenotropil included patients with neurasthenia and organic asthenic disorder (20-47 years) of both sexes (men 37%, women 63%). Control group included practically healthy people (20 people). The study groups were similar in age and sex ratio. Phenotropil was administered at a dose of 100 mg/day, one time in the morning for 30 days. Study of the immune and mental status (level of IL-1, IL-2, IL-3, IL-6, α-TNF, α-INF in supernatants of cultures of peripheral mononuclears from whole blood) was carried out before treatment and at days 7, 14, 21 after the therapy course (30 days) and after 3 months of therapy. Blood sampling for analysis was carried out at the same time of day in the control group and in the group of patients. Peripheral mononuclear cells were isolated from the whole blood; interleukin level was determined by ELISA kits (“Immunotech”, France).

IL-2 = assay: as above; type: in vivo, human; conditions: for IL-2 (×10): asthenoneurotic disorders, humans
Procedure: as §1

IL-3 = assay: as above; type: in vivo, human; conditions: for IL-3 (×10): asthenoneurotic disorders, humans
Procedure: as §1

IL-6 = assay: as above; type: in vivo, human; conditions: for IL-6: asthenoneurotic disorders, humans
Procedure: as §1

α-INF = assay: as above; type: in vivo, human; conditions: for α-INF: asthenoneurotic disorders, humans
Procedure: as §1

α-TNF = assay: as above; type: in vivo, human; conditions: for α-TNF (×100): asthenoneurotic disorders, humans
Procedure: as §1

male subjects = assay: Anti-seasick (anti-kinetosis) activity, visual-vestibular effects; type: in vivo, human
Procedure: Investigations of the anti-seasick (anti-kinetosis) activity of agents with creation of visual-vestibular effects modeling motion sickness were performed on male subjects (23-35 years). Test with continuous exposure to the Coriolis acceleration was performed by rotating vestibulometric chair with angular velocity 180°/s. The eyes of the subject were open, while the optokinetic drum rotated in one direction with the chair with a speed of 90°/s. The time of visual-vestibular effect, vestibulo-vegetative reactions, optokinetic nystagmus before and after kinesia was determined when the drum rotated alternately for two minutes in the R- and S-directions at a speed of 90° s, with a break for 1 minute between rotations, as well as the severity of vestibular effects was measured and the Km was calculated. The studies were conducted 60 minutes after administration of Phenotropil in doses of 25, 50, 100 and 300 mg. Baseline state values and placebo values served as control. Alternate approaches for each participant were performed a week after each previous test. The modulation factor under normal conditions without exposure was 0.97.

[2] = 100.0 mg/kg before training + scopolamine
[3] = 100.0 mg/kg during training and scopolamine
[4] = After treatment (one month course)
[5] = patients, 100 mg/day 30 days, after course
[6] = patients, three months after the therapy
[7] = male subjects, 25, 50, 100, 300 mg

Structure (SMILES): NC(=O)CN1CC(c2ccccc2)CC1=O (racemic) [Compound 1, (RS)-2-(2-oxo-4-phenylpyrrolidine-1-yl)acetamide]
- CCA blood flow (1-2 min) vs background (cats): +26.0%
- SBP (1-2 min) vs background (cats): −24.0%
- SBP (at 4 min) vs background (cats): +14%
- VPR (at 5 min) vs background (cats): −46.0%
- % of animals that did not enter into the dark chamber (rats; [2]): 80% *
- LP Pre-training (rats; [2]): 17.0 ± 2.9
- LP of the training reproduction (rats; [2]): 94.1 ± 8.7
- Number of animals that did not enter into the dark chamber (rats; [2]): 16/20
- Time spent in the dark chamber (rats; [2]): 49.9 ± 6.9
- % of animals that did not enter into the dark chamber (rats; [3]): 70% *
- LP Pre-training (rats; [3]): 18.4 ± 3.3
- LP of the training reproduction (rats; [3]): 91.1 ± 10.1
- Number of animals that did not enter into the dark chamber (rats; [3]): 14/20
- Time spent in the dark chamber (rats; [3]): 63.4 ± 12.5
- Duration of swimming (mice; single dose 25 mg/kg i.p.): 161.90 ± 15.00 min
- Duration of swimming (mice; single dose 50 mg/kg i.p.): 209.83 ± 14.85 min
- Duration of swimming at day 28 (mice; water 2° C.): 2.34 ± 0.15 min
- Duration of swimming (mice; water 2° C., single dose 25 mg/kg i.p.): 2.10 ± 0.17 min
- Duration of swimming (mice; water 2° C., single dose 50 mg/kg i.p.): 2.30 ± 0.22 min
- Duration of swimming at day 28 (mice; water 25° C.): 222.03 ± 10.95 min
- Duration of swimming vs control (mice; water 25° C., single dose 25 mg/kg i.p.): +35%
- Body weight (%) ([1]; 25 mg/kg): −14.0%
- reduction of body weight relative to control ([1]; 25 mg/kg/day i.g. 1 month): 14%
- Body weight (%) ([1]; 50 mg/kg): −25.0 * %
- reduction of body weight relative to control ([1]; 50 mg/kg/day i.g. 1 month): 25%
- Body weight (%) ([1]; 100 mg/kg): −33.3 * %
- reduction of body weight relative to control ([1]; 100 mg/kg/day i.g. 1 month): 33.3%
- Body weight (%) ([1]; 200 mg/kg): −35.0 * %
- reduction of body weight relative to control ([1]; 200 mg/kg/day i.g. 1 month): 35%
- Body weight (%) ([1]; 300 mg/kg): −32.0 * %
- reduction of body weight relative to control ([1]; 300 mg/kg/day i.g. 1 month): 32%
- IL-1 (IL-1; [4]): 1.65 ± 0.03
- IL-1 (IL-1; At 3 months after treatment): 1.63 ± 0.04
- IL-1 level vs baseline values (IL-1; [5]): −3.5%
- IL-1 level vs baseline (IL-1; [6]): −4.6%
- IL-2 (×10) (IL-2; [4]): 2.09 ± 0.04
- IL-2 (×10) (IL-2; At 3 months after treatment): 2.21 ± 0.04
- IL-2 level vs baseline values (IL-2; [5]): +8.9%
- IL-2 level vs baseline (IL-2; [6]): +15.1%
- IL-3 (×10) (IL-3; [4]): 2.13 ± 0.05
- IL-3 (×10) (IL-3; At 3 months after treatment): 2.23 ± 0.06
- IL-3 level vs baseline values (IL-3; [5]): +12.7%
- IL-3 level vs baseline (IL-3; [6]): +18.0%
- IL-6 (IL-6; [4]): 3.55 ± 0.15
- IL-6 (IL-6; At 3 months after treatment): 3.80 ± 0.03
- IL-6 level vs baseline values (IL-6; [5]): +11.3%
- IL-6 level vs baseline (IL-6; [6]): +19.0%
- α-INF (α-INF; [4]): 4.18 ± 0.06
- α-INF (α-INF; At 3 months after treatment): 4.11 ± 0.05
- α-INF level vs baseline values (α-INF; [5]): −10.3%
- α-INF level vs baseline (α-INF; [6]): −11.8%
- α-TNF (×100) (α-TNF; [4]): 8.56 ± 0.60
- α-TNF (×100) (α-TNF; At 3 months after treatment): 7.92 ± 0.54
- α-TNF level vs baseline values (α-TNF; [5]): −11.6%
- α-TNF level vs baseline (α-TNF; [6]): −18.2%
- NEE, negative effects of exposure (male subjects; humans, 25-300 mg): 22.5 ± 7.5 min
- VVE, tolerability of the visual-vestibular effects (male subjects; humans, 25-300 mg): 7.70 ± 0.6 min
- VVR, severity of the vestibulo-vegetative reactions (male subjects; humans, 25-300 mg): 2.3 ± 0.9 points
- improvement of visual-vestibular tolerability vs placebo, average (male subjects; [7]): +80%
- reduction in severity of vestibulo-vegetative reactions vs placebo, average (male subjects; [7]): 68%
- duration of negative consequences condition (male subjects; male subjects, placebo 4-6 hours): 15 to 30 min
